Measured values: patent US20240158355A1, “BET SUBFAMILY INHIBITORS AND METHODS USING SAME” (Baylor College of Medicine, priority 2021, published 2024)

What was measured:
BRDT-BD2 = BRDT-BD2 (Homo sapiens (Human), UniProt Q58F21); assay: AlphaScreen bromodomain proximity assay (competition with biotinylated (+)-JQ1), BRDT-BD2; assay type: binding
BRDT-BD1 = BRDT-BD1 (Homo sapiens (Human), UniProt Q58F21); assay: AlphaScreen bromodomain proximity assay (competition with biotinylated (+)-JQ1), BRDT-BD1; assay type: binding; settings: NE: no effect at 10 μM
[1] = Metabolic stability assay in mouse liver microsomes; assay type: in vitro ADME; settings: for mouse microsomal stability: in words
Experimental: (§1) Compounds 3-10, 15, 17, and 20-22 (2.0 μM) were incubated in the mouse or human liver microsomes (0.5 mg protein/mL) at 37° C. […] The reaction mixtures were centrifuged at rcf 15,000 for 15 min. […] The column temperature was maintained at 40° C. […] Q Exactive MS was operated in positive or negative mode with electrospray ionization.

[2] = Metabolic stability assay in human liver microsomes; assay type: in vitro ADME
Experimental: as §1

His-BRDT-BD2 = His-BRDT-BD2 (Homo sapiens (Human), UniProt Q58F21); settings: 0 = theoretically present in the library but not detected in the sequencing data

| SMILES | IC50 (BRDT-BD2) [nM] | IC50 (BRDT-BD1) [nM] | further results |
| --- | --- | --- | --- |
| CNC(=O)c1ccc(C(=O)Nc2cc(NC(=O)c3ccc4c(c3)c(-c3cc5ccccc5n3C)nn4C)ccc2OC)cc1 [compound 3, N^1-(2-Methoxy-5-(1-methyl-3-(1-methyl-1H-indol-2-yl)-1H-indazole-5-carboxamido)phenyl)-N^4-methylterephthalamide] | 22 | > 10000 | half-life at 2 μM ([1]; 2.0 μM, 0.5 mg protein/mL, 37° C., read-out: MLM t1/2): 31 min; half-life at 2 μM ([2]; data >60 min is an extrapolated estimate, read-out: HLM t1/2): 87 min; Count (observed molecule count in the DEC-Tec screen against BRDT-BD2) (His-BRDT-BD2): 1039 |
| CNC(=O)c1ccc(C(=O)Nc2cc(NC(=O)c3ccc4c(c3)c(-c3cc5ccccc5n3C)nn4C)ccc2C)cc1 [compound 8, N^1-Methyl-N^4-(2-methyl-5-(1-methyl-3-(1-methyl-1H-indol-2-yl)-1H-indazole-5-carboxamido)phenyl)terephthalamide] | 13 | > 10000 | Count (observed molecule count in the DEC-Tec screen against BRDT-BD2) (His-BRDT-BD2): 846 |
| CNC(=O)c1ccc(C(=O)Nc2cc(NC(=O)c3ccc4c(c3)c(-c3ccc(N)cc3C)nn4C)ccc2C)cc1 [compound 9, N^1-(5-(3-(4-Amino-2-methylphenyl)-1-methyl-1H-indazole-5-carboxamido)-2-methylphenyl)-N^4-methylterephthalamide] | – | – | human microsomal stability ([2]; in words): high metabolic stability |
| CNC(=O)c1ccc(C(=O)Nc2cc(NC(=O)c3ccc4c(c3)c(-c3ccc(OC)cc3)nn4C)ccc2C)cc1 [compound 11] | 521 | > 10000 | – |
| CNC(=O)c1ccc(C(=O)Nc2cc(NC(=O)c3ccc4c(c3)c(-c3ccncc3)nn4C)ccc2C)cc1 [compound 12, N^1-Methyl-N^4-(2-methyl-5-(1-methyl-3-(pyridin-4-yl)-1H-indazole-5-carboxamido)phenyl)terephthalamide] | 978 | > 10000 | Count (observed molecule count in the DEC-Tec screen against BRDT-BD2) (His-BRDT-BD2): 0 |
| CNC(=O)c1ccc(C(=O)Nc2cc(NC(=O)c3ccc4c(c3)c(-c3cnc(N)nc3)nn4C)ccc2C)cc1 [compound 13, N^1-(5-(3-(2-Aminopyrimidin-5-yl)-1-methyl-1H-indazole-5-carboxamido)-2-methylphenyl)-N^4-methylterephthalamide] | 139 | > 10000 | – |
| CNC(=O)c1ccc(C(=O)Nc2cc(NC(=O)c3ccc4c(c3)c(-c3cnc(N)cc3C)nn4C)ccc2C)cc1 [compound 15] | 22 | – | mouse microsomal stability [1]: high mouse microsomal stability |
| CC(=O)Nc1cc(NC(=O)c2ccc3c(c2)c(-c2ccc(N)nc2)nn3C)ccc1C [compound 17, N-(3-Acetamido-4-methylphenyl)-3-(6-aminopyridin-3-yl)-1-methyl-1H-indazole-5-carboxamide] | 47 | > 10000 | mouse microsomal stability [1]: high mouse microsomal stability |
| CCn1nc(-c2ccc(N)nc2)c2cc(C(=O)Nc3ccc(C)c(NC(C)=O)c3)ccc21 [compound 18, N-(3-Acetamido-4-methylphenyl)-3-(6-aminopyridin-3-yl)-1-ethyl-1H-indazole-5-carboxamide] | 79 | > 10000 | – |
| CC(=O)Nc1cc(NC(=O)c2ccc3c(c2)c(-c2ccc(N)nc2)nn3C(C)C)ccc1C [compound 19, N-(3-Acetamido-4-methylphenyl)-3-(6-aminopyridin-3-yl)-1-isopropyl-1H-indazole-5-carboxamide] | 253 | > 10000 | – |
| CC(=O)Nc1cccc(NC(=O)c2ccc3c(c2)c(-c2ccc(N)cc2C)nn3C)c1 [compound 21, N-(3-Acetamidophenyl)-3-(4-amino-2-methylphenyl)-1-methyl-1H-indazole-5-carboxamide] | 14 | > 10000 | mouse microsomal stability [1]: high mouse microsomal stability |
| CNC(=O)c1cc(NC(=O)c2ccc3c(c2)c(-c2ccc(N)cc2C)nn3C)ccc1C [compound 22, 3-(4-Amino-2-methylphenyl)-1-methyl-N-(4-methyl-3-(methylcarbamoyl)phenyl)-1H-indazole-5-carboxamide] | 18 | > 10000 | mouse microsomal stability [1]: high mouse microsomal stability |
| COc1ccc(NC(=O)c2ccc3c(c2)c(-c2ccc(N)cc2C)nn3C)cc1NC(=O)c1ccccc1 [compound 23, 3-(4-Amino-2-methylphenyl)-N-(3-benzamido-4-methoxyphenyl)-1-methyl-1H-indazole-5-carboxamide] | 35 | > 10000 | – |
| COc1ccc(NC(=O)c2ccc3c(c2)c(-c2ccc(N)cc2C)nn3C)cc1 [compound 24, 3-(4-Amino-2-methylphenyl)-N-(4-methoxyphenyl)-1-methyl-1H-indazole-5-carboxamide] | 54 | > 10000 | – |
| Cc1cc(N)ccc1-c1nn(C)c2ccc(C(=O)Nc3ccccc3)cc12 [compound 25, 3-(4-Amino-2-methylphenyl)-1-methyl-N-phenyl-1H-indazole-5-carboxamide] | 90 | > 10000 | – |
| COc1ccc(N(C)C(=O)c2ccc3c(c2)c(-c2ccc(N)cc2C)nn3C)cc1 [compound 26, 3-(4-Amino-2-methylphenyl)-N-(4-methoxyphenyl)-N,1-dimethyl-1H-indazole-5-carboxamide] | > 1000 | > 10000 | – |

| SMILES | IC50 (BRDT-BD2) [nM] | IC50 (BRDT-BD1) [nM] | further results |
| --- | --- | --- | --- |
| COc1ccc(NC(=O)c2ccc3nn(C)c(-c4ccc(N)cc4C)c3c2)cc1 [compound 27, 3-(4-Amino-2-methylphenyl)-N-(4-methoxyphenyl)-2-methyl-2H-indazole-5-carboxamide] | 17200 | > 10000 | – |
| CNC(=O)c1ccc2c(c1)c(-c1ccc(N)cc1C)nn2C [compound 55, 3-(4-Amino-2-methylphenyl)-N,1-dimethyl-1H-indazole-5-carboxamide] | 988 | > 10000 | – |
| Cc1cc(N)ccc1-c1nn(C)c2ccc(C(=O)Nc3ccc(OCC4CC4)cc3)cc12 [compound 65, 3-(4-Amino-2-methylphenyl)-N-(4-(cyclopropylmethoxy)phenyl)-1-methyl-1H-indazole-5-carboxamide] | 98 | > 10000 | – |
| CNC(=O)c1ccc2c(c1)c(-c1cc3ccccc3n1C)nn2C [compound 67, N,1-Dimethyl-3-(1-methyl-1H-indol-2-yl)-1H-indazole-5-carboxamide] | 261 | > 10000 | – |
| COc1ccc(NC(=O)c2ccc3c(c2)c(-c2cc4ccccc4n2C)nn3C)cc1Br [compound 68, N-(3-Bromo-4-methoxyphenyl)-1-methyl-3-(1-methyl-1H-indol-2-yl)-1H-indazole-5-carboxamide] | 274 | – | – |
| COc1ccc(NC(=O)c2ccc3c(c2)c(-c2cc4ccccc4n2C)nn3C)cc1I [compound 69, N-(3-Iodo-4-methoxyphenyl)-1-methyl-3-(1-methyl-1H-indol-2-yl)-1H-indazole-5-carboxamide] | 502 | – | – |
| COc1ccc(NC(=O)c2ccc3c(c2)c(-c2cc4ccccc4n2C)nn3C)cc1C(F)(F)F [compound 70, N-(4-Methoxy-3-(trifluoromethyl)phenyl)-1-methyl-3-(1-methyl-1H-indol-2-yl)-1H-indazole-5-carboxamide] | 626 | – | – |
| COc1ccc(NC(=O)c2ccc3c(c2)c(-c2cc4ccccc4n2C)nn3C)cc1C#N [compound 71, N-(3-Cyano-4-methoxyphenyl)-1-methyl-3-(1-methyl-1H-indol-2-yl)-1H-indazole-5-carboxamide] | 168 | – | – |
| COc1ccc(NC(=O)c2ccc3c(c2)c(-c2cc4ccccc4n2C)nn3C)cc1-c1ccccc1 [compound 72, N-(6-Methoxy-[1,1′-biphenyl]-3-yl)-1-methyl-3-(1-methyl-1H-indol-2-yl)-1H-indazole-5-carboxamide] | 2390 | – | – |
| COc1ccc(NC(=O)c2ccc3c(c2)c(-c2cc4ccccc4n2C)nn3C)cc1S(N)(=O)=O [compound 73, N-(4-Methoxy-3-sulfamoylphenyl)-1-methyl-3-(1-methyl-1H-indol-2-yl)-1H-indazole-5-carboxamide] | 111 | – | – |
| COc1ccc(NC(=O)c2ccc3c(c2)c(-c2cc4ccccc4n2C)nn3C)cc1NC(C)=O [compound 74, N-(3-Acetamido-4-methoxyphenyl)-1-methyl-3-(1-methyl-1H-indol-2-yl)-1H-indazole-5-carboxamide] | 32 | – | – |
| COc1ccc(NC(=O)c2ccc3c(c2)c(-c2cc4ccccc4n2C)nn3C)c(C(N)=O)c1 [compound 75, N-(2-Carbamoyl-4-methoxyphenyl)-1-methyl-3-(1-methyl-1H-indol-2-yl)-1H-indazole-5-carboxamide] | 4370 | – | – |
| Cc1cc(N)ccc1-c1nn(C)c2ccc(-c3cnc(C(F)(F)F)nc3)cc12 [compound 77, 3-Methyl-4-(1-methyl-5-(2-(trifluoromethyl)pyrimidin-5-yl)-1H-indazol-3-yl)aniline] | 3630 | > 10000 | – |
| Cc1cc(N)ccc1-c1nn(C)c2ccc(-c3cccnc3)cc12 [compound 78, 3-Methyl-4-(1-methyl-5-(pyridin-3-yl)-1H-indazol-3-yl)aniline] | > 10000 | 2440 | – |
| Cc1ccc(-c2ccc3c(c2)c(-c2ccc(N)cc2C)nn3C)cn1 [compound 79, 3-Methyl-4-(1-methyl-5-(6-methylpyridin-3-yl)-1H-indazol-3-yl)aniline] | > 10000 | 3210 | – |
| COc1ccc(-c2ccc3c(c2)c(-c2ccc(N)cc2C)nn3C)cn1 [compound 80, 4-(5-(6-Methoxypyridin-3-yl)-1-methyl-1H-indazol-3-yl)-3-methylaniline] | > 10000 | 1020 | – |
